# Legend:
# [1] = test system: Mycobacterium tuberculosis; assay: Antimycobacterial activity against Mycobacterium tuberculosis H37Rv ATCC 27294 assessed as bacterial growth inhibition incubated for 5 days by Alamar blue reagent based assay; type: functional; conditions: ATCC 27294, 120 h, time 5 day
# Sporothrix schenckii [2] = assay: Antifungal activity against Sporothrix schenckii assessed as fungal growth inhibition incubated for 48 hrs by CLSI-based broth microdilution assay; type: functional
# Sporothrix [3] = assay: Antifungal activity against Sporothrix brasiliensis assessed as fungal growth inhibition incubated for 48 hrs by CLSI-based broth microdilution assay; type: functional
# Sporothrix [4] = assay: Antifungal activity against Sporothrix brasiliensis assessed as fungal growth inhibition incubated for 48 hrs in presence of itraconazole by CLSI-based broth microdilution assay; type: functional
# Sporothrix schenckii [5] = assay: Antifungal activity against Sporothrix schenckii assessed as fungal growth inhibition incubated for 48 hrs in presence of itraconazole by CLSI-based broth microdilution assay; type: functional
# [6] = Selectivity index, ratio of IC50 for human PBMC cells to IC50 for human HCT-116 cells; type: toxicity; conditions: PBMC cells versus HCT-116 cells, read-out: Ratio IC50
# [7] = Selectivity index, ratio of IC50 for human PBMC cells to IC50 for human K562 cells; type: toxicity; conditions: PBMC cells versus K562 cells, read-out: Ratio IC50
# K562 [8] = assay: Cytotoxicity against human K562 cells assessed as reduction in cell viability incubated for 72 hrs by MTT assay; type: functional, cell-based; conditions: K562, 72 h
# Staphylococcus aureus = assay: Antibacterial activity against Staphylococcus aureus 2065 MA assessed as diameter of bacterial growth inhibition by Mueller-Hinton broth based assay; type: functional
# PC-3 = assay: Cytotoxicity against human PC-3 cells assessed as reduction in cell viability incubated for 72 hrs by MTT assay; type: functional, cell-based; conditions: PC-3, 72 h
# HCT-116 [9] = assay: Cytotoxicity against human HCT-116 cells assessed as reduction in cell viability incubated for 72 hrs by MTT assay; type: functional, cell-based; conditions: HCT-116, 72 h
# SF-295 [10] = assay: Cytotoxicity against human SF-295 cells assessed as reduction in cell viability incubated for 72 hrs by MTT assay; type: functional, cell-based; conditions: SF-295, 72 h
# MCF7 = assay: Cytotoxicity against human MCF7 cells assessed as reduction in cell viability incubated for 72 hrs by MTT assay; type: functional, cell-based; conditions: MCF7, 72 h
# [11] = Cytotoxicity against mouse L929 cells assessed as reduction in cell viability incubated for 72 hrs by MTT assay; type: toxicity, cell-based
# B16-F10 = assay: Cytotoxicity against mouse B16-F10 cells assessed as reduction in cell viability incubated for 72 hrs by MTT assay; type: functional, cell-based; conditions: B16-F10, 72 h
# SNB-19 = assay: Cytotoxicity against human SNB-19 cells assessed as reduction in cell viability incubated for 72 hrs by MTT assay; type: functional, cell-based; conditions: SNB-19, 72 h
# SF-295 [12] = assay: Cytotoxicity against human SF-295 cells assessed as reduction in cell viability by MTT assay; type: functional, cell-based
# HCT-116 [13] = assay: Cytotoxicity against human HCT-116 cells assessed as reduction in cell viability by MTT assay; type: functional, cell-based
# OVCAR-8 = assay: Cytotoxicity against human OVCAR-8 cells assessed as reduction in cell viability by MTT assay; type: functional, cell-based
# HL-60 [14] = assay: Cytotoxicity against human HL-60 cells assessed as reduction in cell viability by MTT assay; type: functional, cell-based
# [15] = Cytotoxicity against human AGP01 cells assessed as reduction in cell viability incubated for 72 hrs by alamar blue assay; type: functional, cell-based; conditions: AGP01, 72 h
# [16] = Cytotoxicity against human ACP03 cells assessed as reduction in cell viability incubated for 72 hrs by alamar blue assay; type: functional, cell-based; conditions: ACP03, 72 h
# HCT-116 [17] = assay: Cytotoxicity against human HCT-116 cells assessed as reduction in cell viability incubated for 72 hrs by alamar blue assay; type: functional, cell-based; conditions: HCT-116, 72 h
# SCC-15 = assay: Cytotoxicity against human SCC-15 cells assessed as reduction in cell viability incubated for 72 hrs by alamar blue assay; type: functional, cell-based; conditions: SCC-15, 72 h
# SCC-4 = assay: Cytotoxicity against human SCC-4 cells assessed as reduction in cell viability incubated for 72 hrs by alamar blue assay; type: functional, cell-based; conditions: SCC-4, 72 h
# HepG2 = assay: Cytotoxicity against human HepG2 cells assessed as reduction in cell viability incubated for 72 hrs by alamar blue assay; type: functional, cell-based; conditions: HepG2, 72 h
# K562 [18] = assay: Cytotoxicity against human K562 cells assessed as reduction in cell viability incubated for 72 hrs by alamar blue assay; type: functional, cell-based; conditions: K562, 72 h
# SCC-25 = assay: Cytotoxicity against human SCC-25 cells assessed as reduction in cell viability incubated for 72 hrs by alamar blue assay; type: functional, cell-based; conditions: SCC-25, 72 h
# SCC-9 = assay: Cytotoxicity against human SCC-9 cells assessed as reduction in cell viability incubated for 72 hrs by alamar blue assay; type: functional, cell-based; conditions: SCC-9, 72 h
# HT-29 = assay: Cytotoxicity against human HT-29 cells assessed as reduction in cell viability incubated for 72 hrs by alamar blue assay; type: functional, cell-based; conditions: HT-29, 72 h
# [19] = Cytotoxicity against human ACP02 cells assessed as reduction in cell viability incubated for 72 hrs by alamar blue assay; type: functional, cell-based; conditions: ACP02, 72 h
# HL-60 [20] = assay: Cytotoxicity against human HL-60 cells assessed as reduction in cell viability incubated for 72 hrs by alamar blue assay; type: functional, cell-based; conditions: HL-60, 72 h
# [21] = Selectivity index, ratio of IC50 for human PBMC cells to IC50 for human HL-60 cells; type: toxicity; conditions: PBMC cells versus HL-60 cells, read-out: Ratio IC50
# HSC-3 = assay: Cytotoxicity against human HSC-3 cells assessed as reduction in cell viability incubated for 72 hrs by alamar blue assay; type: functional, cell-based; conditions: HSC-3, 72 h
# NCI-H460 = assay: Cytotoxicity against human NCI-H460 cells assessed as reduction in cell viability incubated for 72 hrs by MTT assay; type: functional, cell-based; conditions: NCI-H460, 72 h
# HEp-2 = assay: Cytotoxicity against human HEp-2 cells assessed as reduction in cell viability incubated for 72 hrs by MTT assay; type: functional, cell-based; conditions: HEp-2, 72 h
# NCI-H292 = assay: Cytotoxicity against human NCI-H292 cells assessed as reduction in cell viability incubated for 72 hrs by MTT assay; type: functional, cell-based; conditions: NCI-H292, 72 h
# [22] = Cytotoxicity against monkey LLC-MK2 cells assessed as reduction in cell viability incubated for 96 hrs by trypan blue assay; type: toxicity, cell-based, Macaca mulatta; conditions: rhesus monkey, read-out: LC50
# HL-60 [23] = assay: Cytotoxicity against human HL-60 cells assessed as reduction in cell viability incubated for 72 hrs by MTT assay; type: functional, cell-based; conditions: HL-60, 72 h
# HCT-8 = assay: Cytotoxicity against human HCT-8 cells assessed as reduction in cell viability incubated for 72 hrs by MTT assay; type: functional, cell-based; conditions: HCT-8, 72 h
# Enterococcus faecalis = assay: Antibacterial activity against Enterococcus faecalis clinical isolates assessed as bacterial growth inhibition by broth macrodilution method; type: functional
# MDA-MB-435 = assay: Cytotoxicity against human MDA-MB-435 cells assessed as reduction in cell viability incubated for 72 hrs by MTT assay; type: functional, cell-based; conditions: MDA-MB-435, 72 h
# B16 = assay: Cytotoxicity against mouse B16 cells assessed as reduction in cell viability incubated for 72 hrs by MTT assay; type: functional, cell-based; conditions: B16, 72 h
smiles,measurement,setting,value
Cc1ccc(C2CCC3=C(O2)c2ccccc2C(=O)C3=O)cc1 (stereo unspecified),MIC,[1],1.25 µg/mL
Cc1ccc(C2CC(c3ccccc3)C3=C(O2)c2ccccc2C(=O)C3=O)cc1 (stereo unspecified),MIC,[1],3.12 µg/mL
O=C1C(=O)c2ccccc2C2=C1CC(c1ccccc1)O2 (stereo unspecified),MIC,Sporothrix schenckii [2],2 µM
same,MIC,Sporothrix [3],2 µM
same,MIC,Sporothrix [4],0.03 µM
same,MIC,Sporothrix schenckii [5],0.06 µM
CC1(c2ccccc2)CC2=C(O1)c1ccccc1C(=O)C2=O (stereo unspecified),MIC,Sporothrix schenckii [2],2 µM
same,MIC,Sporothrix [3],2 µM
same,MIC,Sporothrix [4],0.03 µM
same,MIC,Sporothrix schenckii [5],0.06 µM
CC1(C)OC2=C(C(=O)C(=O)c3ccccc32)C1Sc1ccccc1 (stereo unspecified),selectivity ratio,[6],2.96
same,selectivity ratio,[7],2.11
same,IC50,K562 [8],0.9 µM
same,zone diameter,Staphylococcus aureus,11 mm
same,IC50,PC-3,0.9 µM
same,IC50,HCT-116 [9],0.9 µM
same,IC50,SF-295 [10],0.9 µM
O=C1C(=O)c2ccccc2C2=C1CCC(c1ccccc1)O2 (stereo unspecified),MIC,[1],2.5 µg/mL
CC1(C)OC2=C(C(=O)C(=O)c3ccccc32)C1n1cc(C[Se]c2ccccc2)nn1 (stereo unspecified),IC50,MCF7,1.06 µM
same,IC50 at 72 h,[11],1.06 µM
same,IC50,PC-3,1.06 µM
same,IC50,B16-F10,1.06 µM
same,IC50,HCT-116 [9],1.06 µM
same,IC50,SNB-19,1.06 µM
CC1(C)O[C@@H]2O[C@@H](COC3C4=C(OC3(C)C)c3ccccc3C(=O)C4=O)[C@H]3OC(C)(C)O[C@H]3[C@@H]2O1 (stereo partly specified),IC50,SF-295 [12],0.16 µM
same,IC50,HCT-116 [13],0.16 µM
same,IC50,OVCAR-8,0.16 µM
same,IC50,HL-60 [14],0.16 µM
CC1(C)OC2=C(CC1I)C(=O)C(=O)c1ccccc12 (stereo unspecified),IC50,[15],0.02 µM
same,IC50,[16],0.02 µM
same,IC50,HCT-116 [17],0.02 µM
same,IC50,SCC-15,0.02 µM
same,IC50,SCC-4,0.02 µM
same,IC50,HepG2,0.02 µM
same,IC50,K562 [18],0.02 µM
same,IC50,SCC-25,0.02 µM
same,IC50,SCC-9,0.02 µM
same,IC50,HT-29,0.02 µM
same,IC50,[19],0.02 µM
same,IC50,HL-60 [20],0.02 µM
same,selectivity ratio,[21],1690
same,IC50,HSC-3,0.02 µM
CC1(C)OC2=C(C(=O)C(=O)c3ccccc32)[C@H](n2cc(C[Se]c3ccc(F)cc3)nn2)[C@H]1Br,IC50,PC-3,1.06 µM
same,IC50,NCI-H460,1.32 µM
CC(=O)OCC1C2=C(OC1(C)C)c1ccccc1C(=O)C2=O (stereo unspecified),IC50,HEp-2,0.6 µM
same,IC50,NCI-H292,0.6 µM
CCCCCCCCCCC1CC2=C(O1)c1ccccc1C(=O)C2=O (stereo unspecified),CC50 at 96 h,[22],1700 µM
CC1(C)OC2=C(C(=O)C(=O)c3ccccc32)C1n1cc(C2(O)CCCCC2)nn1 (stereo unspecified),IC50,HL-60 [23],0.43 µM
same,IC50,HCT-8,0.43 µM
same,MIC,Enterococcus faecalis,16 µg/mL
same,IC50,PC-3,0.43 µM
same,IC50,MDA-MB-435,0.43 µM
same,IC50,B16,0.43 µM
same,IC50,SF-295 [10],0.43 µM
CC1(C)OC2=C(C(=O)C(=O)c3ccccc32)C1n1cc(-c2ccccc2)nn1 (stereo unspecified),IC50,HL-60 [23],1.21 µM
same,IC50,HCT-8,< 1.21 µM
same,MIC,Enterococcus faecalis,8 µg/mL
same,IC50,PC-3,< 1.21 µM
same,IC50,MDA-MB-435,< 1.21 µM
same,IC50,B16,< 1.21 µM
same,IC50,SF-295 [10],< 1.21 µM

# Source: ChEMBL document CHEMBL5104093, “A comprehensive review on β-lapachone: Mechanisms, structural modifications, and therapeutic potentials” (Eur J Med Chem, 2021)
